{"source": "paper PMC11676667", "about": "“Pharmacokinetics of Oral Cannabinoid Δ8-Tetrahydrocannabivarin and Its Main Metabolites in Healthy Participants” (Pharmaceuticals, 2024)", "key": {"CB2 receptors": {"test_system": "CB2 receptors", "parameters": "method as in PMID 21470208", "details": "in vitro; cited from earlier work"}, "[1]": {"test": "Plasma pharmacokinetics after single oral dose of Δ8-THCV in MCT oil (LC-MS/MS, non-compartmental analysis)", "type": "in vivo, human", "parameters": "Clast (last quantifiable concentration): unit not given here", "details": "for Clast (last quantifiable concentration) / tlast (time to last quantifiable concentration) / concentration at 0.5 h / concentration at 1 h / concentration at 2 h / concentration at 4 h / concentration at 6 h / concentration at 8 h: plasma; for plasma concentration: Predose; for concentration at 0.5 h / concentration at 1 h / concentration at 2 h / concentration at 4 h / concentration at 6 h / concentration at 8 h: human, oral", "procedure,_shortened": "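Healthy participants received single oral Δ8-THCV in MCT oil (50 mg/mL; 12.5-200 mg, or placebo) after a high-fat, high-calorie breakfast, with ≥1-week washout. Plasma (K2EDTA) sampled predose and 0.5-8 h post-dose, assayed by validated LC-MS/MS including metabolites; PK by non-compartmental analysis, sub-LLOQ values set to 0.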"}, "[2]": {"details": "12.5 mg single oral Δ8-THCV in MCT oil, Mean (±SD)"}, "[3]": {"details": "12.5 mg single oral Δ8-THCV in MCT oil, Median (Range)"}, "[4]": {"details": "25 mg single oral Δ8-THCV in MCT oil, Mean (±SD)"}, "[5]": {"details": "25 mg single oral Δ8-THCV in MCT oil, Median (Range)"}, "[6]": {"details": "50 mg single oral Δ8-THCV in MCT oil, Mean (±SD)"}, "[7]": {"details": "50 mg single oral Δ8-THCV in MCT oil, Median (Range)"}, "[8]": {"details": "100 mg single oral Δ8-THCV in MCT oil, Mean (±SD)"}, "[9]": {"details": "100 mg single oral Δ8-THCV in MCT oil, Median (Range)"}, "[10]": {"details": "200 mg single oral Δ8-THCV in MCT oil, Mean (±SD)"}, "[11]": {"details": "200 mg single oral Δ8-THCV in MCT oil, Median (Range)"}, "[12]": {"details": "12.5 mg, 12.5 mg Δ8-THCV dose, Mean (SD, %CV)"}, "[13]": {"details": "12.5 mg, 12.5 mg Δ8-THCV dose, Median (IQ Range)"}, "[14]": {"details": "25 mg, 25 mg Δ8-THCV dose, Mean (SD, %CV)"}, "[15]": {"details": "25 mg, 25 mg Δ8-THCV dose, Median (IQ Range)"}, "[16]": {"details": "50 mg, 50 mg Δ8-THCV dose, Mean (SD, %CV)"}, "[17]": {"details": "50 mg, 50 mg Δ8-THCV dose, Median (IQ Range)"}}, "data": [{"smiles": "CCCc1cc(O)c2c(c1)OC(C)(C)[C@@H]1CC=C(CO)C[C@@H]21", "note": "(racemic) [11-OH-Δ8-THCV, (±)-11-hydroxy-Δ8-THCV]", "values": [{"measurement": "CB2 receptor activation", "setting": "CB2 receptors", "result": "activate CB2 receptors"}, {"measurement": "Clast (last quantifiable concentration)", "setting": "[1]; [2]", "result": "0.8 (±0.2)"}, {"measurement": "tlast (time to last quantifiable concentration)", "setting": "[1]; [2]", "result": "3.6 (±1.7)"}, {"measurement": "Clast (last quantifiable concentration)", "setting": "[1]; [3]", "result": "0.8 (0.6–1.1)"}, {"measurement": "tlast (time to last quantifiable concentration)", "setting": "[1]; [3]", "result": "4 (2–6)"}, {"measurement": "Clast (last quantifiable concentration)", "setting": "[1]; [4]", "result": "0.8 (±0.1)"}, {"measurement": "tlast (time to last quantifiable concentration)", "setting": "[1]; [4]", "result": "4.3 (±1.8)"}, {"measurement": "Clast (last quantifiable concentration)", "setting": "[1]; [5]", "result": "0.8 (0.6–1)"}, {"measurement": "tlast (time to last quantifiable concentration)", "setting": "[1]; [5]", "result": "4 (2–6)"}, {"measurement": "Clast (last quantifiable concentration)", "setting": "[1]; [6]", "result": "0.9 (±0.3)"}, {"measurement": "tlast (time to last quantifiable concentration)", "setting": "[1]; [6]", "result": "7.8 (±0.6)"}, {"measurement": "Clast (last quantifiable concentration)", "setting": "[1]; [7]", "result": "0.8 (0.6–1.5)"}, {"measurement": "tlast (time to last quantifiable concentration)", "setting": "[1]; [7]", "result": "8 (6–8)"}, {"measurement": "Clast (last quantifiable concentration)", "setting": "[1]; [8]", "result": "1.4 (±0.9)"}, {"measurement": "tlast (time to last quantifiable concentration)", "setting": "[1]; [8]", "result": "7.6 (±1.2)"}, {"measurement": "Clast (last quantifiable concentration)", "setting": "[1]; [9]", "result": "1.1 (0.5–3.8)"}, {"measurement": "tlast (time to last quantifiable concentration)", "setting": "[1]; [9]", "result": "8 (4–8)"}, {"measurement": "Clast (last quantifiable concentration)", "setting": "[1]; [10]", "result": "3.7 (±2.6)"}, {"measurement": "tlast (time to last quantifiable concentration)", "setting": "[1]; [10]", "result": "8 (±0)"}, {"measurement": "Clast (last quantifiable concentration)", "setting": "[1]; [11]", "result": "3.1 (1.2–11.3)"}, {"measurement": "tlast (time to last quantifiable concentration)", "setting": "[1]; [11]", "result": "8 (8–8)"}, {"measurement": "plasma concentration", "setting": "[1]; 12.5 mg Δ8-THCV dose, Mean (SD, %CV)", "result": "0 (±0, --) ng/mL"}, {"measurement": "plasma concentration", "setting": "[1]; 12.5 mg Δ8-THCV dose, Median (IQ Range)", "result": "0 (0–0) ng/mL"}, {"measurement": "plasma concentration", "setting": "[1]; 25 mg Δ8-THCV dose, Mean (SD, %CV)", "result": "0 (±0, --) ng/mL"}, {"measurement": "plasma concentration", "setting": "[1]; 25 mg Δ8-THCV dose, Median (IQ Range)", "result": "0 (0–0) ng/mL"}, {"measurement": "plasma concentration", "setting": "[1]; 50 mg Δ8-THCV dose, Mean (SD, %CV)", "result": "0 (±0, --) ng/mL"}, {"measurement": "plasma concentration", "setting": "[1]; 50 mg Δ8-THCV dose, Median (IQ Range)", "result": "0 (0–0) ng/mL"}, {"measurement": "plasma concentration", "setting": "[1]; 100 mg Δ8-THCV dose, Mean (SD, %CV)", "result": "0 (±0, --) ng/mL"}, {"measurement": "plasma concentration", "setting": "[1]; 100 mg Δ8-THCV dose, Median (IQ Range)", "result": "0 (0–0) ng/mL"}, {"measurement": "plasma concentration", "setting": "[1]; 200 mg Δ8-THCV dose, Mean (SD, %CV)", "result": "0 (±0, --) ng/mL"}, {"measurement": "plasma concentration", "setting": "[1]; 200 mg Δ8-THCV dose, Median (IQ Range)", "result": "0 (0–0) ng/mL"}, {"measurement": "median AUClast ratio Δ8-THCV-COOH/Δ8-THCV/11-OH-Δ8-THCV", "setting": "[1]; after the 200 mg dose, Δ8-THCV = 1", "result": 0.18}, {"measurement": "concentration at 0.5 h", "setting": "[1]; [12]", "result": 0, "unit": "ng/mL"}, {"measurement": "concentration at 0.5 h", "setting": "[1]; [13]", "result": 0, "unit": "ng/mL"}, {"measurement": "concentration at 1 h", "setting": "[1]; [12]", "result": 0, "unit": "ng/mL"}, {"measurement": "concentration at 1 h", "setting": "[1]; [13]", "result": 0, "unit": "ng/mL"}, {"measurement": "concentration at 2 h", "setting": "[1]; [12]", "result": 0.1, "unit": "ng/mL"}, {"measurement": "concentration at 2 h", "setting": "[1]; [13]", "result": 0, "unit": "ng/mL"}, {"measurement": "concentration at 4 h", "setting": "[1]; [12]", "result": 0.1, "unit": "ng/mL"}, {"measurement": "concentration at 4 h", "setting": "[1]; [13]", "result": 0, "unit": "ng/mL"}, {"measurement": "concentration at 6 h", "setting": "[1]; [12]", "result": 0.1, "unit": "ng/mL"}, {"measurement": "concentration at 6 h", "setting": "[1]; [13]", "result": 0, "unit": "ng/mL"}, {"measurement": "concentration at 8 h", "setting": "[1]; [12]", "result": 0, "unit": "ng/mL"}, {"measurement": "concentration at 8 h", "setting": "[1]; [13]", "result": 0, "unit": "ng/mL"}, {"measurement": "concentration at 0.5 h", "setting": "[1]; [14]", "result": 0, "unit": "ng/mL"}, {"measurement": "concentration at 0.5 h", "setting": "[1]; [15]", "result": 0, "unit": "ng/mL"}, {"measurement": "concentration at 1 h", "setting": "[1]; [14]", "result": 0.1, "unit": "ng/mL"}, {"measurement": "concentration at 1 h", "setting": "[1]; [15]", "result": 0, "unit": "ng/mL"}, {"measurement": "concentration at 2 h", "setting": "[1]; [14]", "result": 0.3, "unit": "ng/mL"}, {"measurement": "concentration at 2 h", "setting": "[1]; [15]", "result": 0, "unit": "ng/mL"}, {"measurement": "concentration at 4 h", "setting": "[1]; [14]", "result": 0.2, "unit": "ng/mL"}, {"measurement": "concentration at 4 h", "setting": "[1]; [15]", "result": 0, "unit": "ng/mL"}, {"measurement": "concentration at 6 h", "setting": "[1]; [14]", "result": 0.2, "unit": "ng/mL"}, {"measurement": "concentration at 6 h", "setting": "[1]; [15]", "result": 0, "unit": "ng/mL"}, {"measurement": "concentration at 8 h", "setting": "[1]; [14]", "result": 0, "unit": "ng/mL"}, {"measurement": "concentration at 8 h", "setting": "[1]; [15]", "result": 0, "unit": "ng/mL"}, {"measurement": "concentration at 0.5 h", "setting": "[1]; [16]", "result": 0, "unit": "ng/mL"}, {"measurement": "concentration at 0.5 h", "setting": "[1]; [17]", "result": 0, "unit": "ng/mL"}, {"measurement": "concentration at 1 h", "setting": "[1]; [16]", "result": 0.1, "unit": "ng/mL"}, {"measurement": "concentration at 1 h", "setting": "[1]; [17]", "result": 0, "unit": "ng/mL"}, {"measurement": "concentration at 2 h", "setting": "[1]; [16]", "result": 0.4, "unit": "ng/mL"}, {"measurement": "concentration at 2 h", "setting": "[1]; [17]", "result": 0, "unit": "ng/mL"}, {"measurement": "concentration at 4 h", "setting": "[1]; [16]", "result": 0.6, "unit": "ng/mL"}, {"measurement": "concentration at 4 h", "setting": "[1]; [17]", "result": 0, "unit": "ng/mL"}, {"measurement": "concentration at 6 h", "setting": "[1]; [16]", "result": 1, "unit": "ng/mL"}, {"measurement": "concentration at 6 h", "setting": "[1]; [17]", "result": 0.9, "unit": "ng/mL"}, {"measurement": "concentration at 8 h", "setting": "[1]; [16]", "result": 0.6, "unit": "ng/mL"}]}]}
